From patent publication US10647747B2, “Cyclosporin derivatives and uses thereof” (S&T Global Inc., priority 2010, dated 2020)
*1 amine or outer side, *2 acyl side, *3 side chain or, on linkers, in order; H or OH if unused. Where a SMILES comes first, the peptide text is derived from it. [ ]: non-standard residue; d: D form. The star is where a group is joined. MeBmt = C/C=C/C[C@@H](C)[C@@H](O)[C@H](NC)C(=O)O; X14 = CCOCOC(C)(C)C[C@@H](C(=O)[*:2])N(C)[*:1]; X3 = CC=CCC(C)C(O)C(C(=O)[*:2])N(C)[*:1]; X5 = CSCOC(C)(C)CC(C(=O)[*:2])N(C)[*:1]; X4 = CCN(CC)CCSC(C(=O)[*:2])N(C)[*:1]; NMeL = CN[CH](CC(C)C)C(=O)O; NMeV = CN[CH](C(=O)O)C(C)C; dNMeC = CN[C@H](CS)C(=O)O; Et2NCH2CH2 = CCN(CC)CC*; Abu = CC[CH](N)C(=O)O

System: HCV replicon in cell line ET (luc-ubi-neo/ET), Huh7 human hepatoma
Test: HCV subgenomic replicon assay, luciferase end point
Assay type: cell-based
Conditions: HCV subgenomic replicon, cell line ET (luc-ubi-neo/ET) Huh7, luciferase end point; read-out: Antiviral activity EC50

Compound	EC50 [nM]
C/C=C/C[C@@H](C)[C@@H](O)[C@H]1C(=O)N[C@@H](CC)C(=O)N(C)[C@H](CSCCCN(CC)CC)C(=O)N(C)[C@@H](CC(C)(C)OC)C(=O)N[C@@H](C(C)C)C(=O)N(C)[C@@H](CC(C)C)C(=O)N[C@@H](C)C(=O)N[C@H](C)C(=O)N(C)[C@@H](CC(C)C)C(=O)N(C)[C@@H](CC(C)C)C(=O)N(C)[C@@H](C(C)C)C(=O)N1C	70
C/C=C/C[C@@H](C)[C@@H](O)[C@H]1C(=O)N[C@@H](CC)C(=O)N(C)[C@H](CSCCN(C)C)C(=O)N(C)[C@@H](CC(C)C)C(=O)N[C@@H](C(C)C)C(=O)N(C)[C@@H](CC(C)C)C(=O)N[C@@H](C)C(=O)N[C@H](C)C(=O)N(C)[C@@H](CC(C)C)C(=O)N(C)[C@@H](CC(C)C)C(=O)N(C)[C@@H](C(C)C)C(=O)N1C (single isomer, unassigned; isomer b) [[(S)-(2-(N,N-Dimethylamino)ethylthio)methyl-Sar]-3-cyclosporin (isomer B)]	170
C/C=C/C[C@@H](C)[C@@H](O)[C@H]1C(=O)N[C@@H](CC)C(=O)N(C)[C@H](CSCCN(CC)CC)C(=O)N(C)[C@@H](CC(C)C)C(=O)N[C@@H](C(C)C)C(=O)N(C)[C@@H](CC(C)C)C(=O)N[C@@H](C)C(=O)N[C@H](C)C(=O)N(C)[C@@H](CC(C)C)C(=O)N(C)[C@@H](CC(C)C)C(=O)N(C)[C@@H](C(C)C)C(=O)N1C (single isomer, unassigned; isomer b) [[(S)-(2-(N,N-Diethylamino)ethylthio)methyl-Sar]-3-cyclosporin (isomer B)]	160
C/C=C/C[C@@H](C)[C@@H](O)[C@H]1C(=O)N[C@@H](CC)C(=O)N(C)[C@H](COCCN(CC)CC)C(=O)N(C)[C@@H](CC(C)(C)OC)C(=O)N[C@@H](C(C)C)C(=O)N(C)[C@@H](CC(C)C)C(=O)N[C@@H](C)C(=O)N[C@H](C)C(=O)N(C)[C@@H](CC(C)C)C(=O)N(C)[C@@H](CC(C)C)C(=O)N(C)[C@@H](C(C)C)C(=O)N1C [listing 1 of 2 here]	60
CC=CCC(C)C(O)C1C(=O)NC(CC)C(=O)N(C)C(CSCCCN2CCCCC2)C(=O)N(C)C(CC(C)(C)OC)C(=O)NC(C(C)C)C(=O)N(C)C(CC(C)C)C(=O)NC(C)C(=O)NC(C)C(=O)N(C)C(CC(C)C)C(=O)N(C)C(CC(C)C)C(=O)N(C)C(C(C)C)C(=O)N1C (stereo not shown)	60
CC=CCC(C)C(O)C1C(=O)NC(CC)C(=O)N(C)C(COCCN(C)C)C(=O)N(C)C(CC(C)(C)O)C(=O)NC(C(C)C)C(=O)N(C)C(CC(C)C)C(=O)NC(C)C(=O)NC(C)C(=O)N(C)C(CC(C)C)C(=O)N(C)C(CC(C)C)C(=O)N(C)C(C(C)C)C(=O)N1C (stereo not shown)	240
CC=CCC(C)C(O)C1C(=O)NC(CC)C(=O)N(C)C(CSCCCN(CC)C(C)C)C(=O)N(C)C(CC(C)(C)O)C(=O)NC(C(C)C)C(=O)N(C)C(CC(C)C)C(=O)NC(C)C(=O)NC(C)C(=O)N(C)C(CC(C)C)C(=O)N(C)C(CC(C)C)C(=O)N(C)C(C(C)C)C(=O)N1C (stereo not shown)	60
C/C=C/C[C@@H](C)[C@@H](O)[C@H]1C(=O)N[C@@H](CC)C(=O)N(C)[C@H](COCCCN2CCCC2)C(=O)N(C)[C@@H](CC(C)(C)O)C(=O)N[C@@H](C(C)C)C(=O)N(C)[C@@H](CC(C)C)C(=O)N[C@@H](C)C(=O)N[C@H](C)C(=O)N(C)[C@@H](CC(C)C)C(=O)N(C)[C@@H](CC(C)C)C(=O)N(C)[C@@H](C(C)C)C(=O)N1C	220
CC=CCC(C)C(O)C1C(=O)NC(CC)C(=O)N(C)C(CSCCN2CCOCC2)C(=O)N(C)C(CC(C)(C)OC)C(=O)NC(C(C)C)C(=O)N(C)C(CC(C)C)C(=O)NC(C)C(=O)NC(C)C(=O)N(C)C(CC(C)C)C(=O)N(C)C(CC(C)C)C(=O)N(C)C(C(C)C)C(=O)N1C (stereo not shown)	110
CC=CCC(C)C(O)C1C(=O)NC(CC)C(=O)N(C)C(CSCCN(CC(C)C)CC(C)C)C(=O)N(C)C(CC(C)(C)O)C(=O)NC(C(C)C)C(=O)N(C)C(CC(C)C)C(=O)NC(C)C(=O)NC(C)C(=O)N(C)C(CC(C)C)C(=O)N(C)C(CC(C)C)C(=O)N(C)C(C(C)C)C(=O)N1C (stereo not shown)	120
CC=CCC(C)C(O)C1C(=O)NC(CC)C(=O)N(C)C(CSCCCN(C)C)C(=O)N(C)C(CC(C)(C)OC)C(=O)NC(C(C)C)C(=O)N(C)C(CC(C)C)C(=O)NC(C)C(=O)NC(C)C(=O)N(C)C(CC(C)C)C(=O)N(C)C(CC(C)C)C(=O)N(C)C(C(C)C)C(=O)N1C (stereo not shown)	90
CC=CCC(C)C(O)C1C(=O)NC(CC)C(=O)N(C)C(CSCCN2CCN(C)CC2)C(=O)N(C)C(CC(C)(C)O)C(=O)NC(C(C)C)C(=O)N(C)C(CC(C)C)C(=O)NC(C)C(=O)NC(C)C(=O)N(C)C(CC(C)C)C(=O)N(C)C(CC(C)C)C(=O)N(C)C(C(C)C)C(=O)N1C (stereo not shown)	90
CC=CCC(C)C(O)C1C(=O)NC(CC)C(=O)N(C)C(CSCCCN2CCCC2)C(=O)N(C)C(CC(C)(C)OC)C(=O)NC(C(C)C)C(=O)N(C)C(CC(C)C)C(=O)NC(C)C(=O)NC(C)C(=O)N(C)C(CC(C)C)C(=O)N(C)C(CC(C)C)C(=O)N(C)C(C(C)C)C(=O)N1C (stereo not shown)	100

Same assay, conditions: Hepatitis C virus, Huh-7, Table 14, HCV replicon luciferase; read-out: Antiviral activity EC50

Compound	EC50 [nM]
C/C=C/C[C@@H](C)[C@@H](O)[C@H]1C(=O)N[C@@H](CC)C(=O)N(C)[C@H](COCCN(CC)CC)C(=O)N(C)[C@@H](CC(C)(C)OC)C(=O)N[C@@H](C(C)C)C(=O)N(C)[C@@H](CC(C)C)C(=O)N[C@@H](C)C(=O)N[C@H](C)C(=O)N(C)[C@@H](CC(C)C)C(=O)N(C)[C@@H](CC(C)C)C(=O)N(C)[C@@H](C(C)C)C(=O)N1C [listing 2 of 2 here]	20
C/C=C/C[C@@H](C)[C@@H](O)[C@H]1C(=O)N[C@@H](CC)C(=O)N(C)[C@H](CSCCN(CC)CC)C(=O)N(C)[C@@H](CC(C)(C)OCOCC)C(=O)N[C@@H](C(C)C)C(=O)N(C)[C@@H](CC(C)C)C(=O)N[C@@H](C)C(=O)N[C@H](C)C(=O)N(C)[C@@H](CC(C)C)C(=O)N(C)[C@@H](CC(C)C)C(=O)N(C)[C@@H](C(C)C)C(=O)N1C (cyclo(A[dA][NMeL][NMeL][NMeV][MeBmt][Abu][dNMeC](Et2NCH2CH2)[X14]V[NMeL]))	20

Same assay, conditions: Table 12, HCV replicon luciferase; read-out: Antiviral activity EC50

Compound	EC50 [nM]
CC=CCC(C)C(O)C1C(=O)NC(CC)C(=O)N(C)C(SCCN(CC(C)C)C(C)C)C(=O)N(C)C(CC(C)C)C(=O)NC(C(C)C)C(=O)N(C)C(CC(C)C)C(=O)NC(C)C(=O)NC(C)C(=O)N(C)C(CC(C)C)C(=O)N(C)C(CC(C)C)C(=O)N(C)C(C(C)C)C(=O)N1C [(S)-2-(N-iso-Butyl-N-iso-propylamino)ethylthio-Sar]-3-cyclosporin]	480
(R)-2-(N-iso-Butyl-N-iso-propylamino)ethylthio-Sar]-3-cyclosporin	4650

Same assay, conditions: Table 13, HCV replicon luciferase; read-out: Antiviral activity EC50

Compound	EC50 [nM]
CC=CCC(C)C(O)C1C(=O)NC(CC)C(=O)N(C)CC(=O)N(C)C(CC(C)(C)OC)C(=O)NC(C(C)C)C(=O)N(C)C(CC(C)C)C(=O)NC(C)C(=O)NC(C)C(=O)N(C)C(CC(C)C)C(=O)N(C)C(CC(C)C)C(=O)N(C)C(C(C)C)C(=O)N1C (stereo not shown) [[(γ-Methoxy)-N-MeLeu]-4-cyclosporin]	180
CC=CCC(C)C(O)C1C(=O)NC(CC)C(=O)N(C)CC(=O)N(C)C(CO)C(=O)NC(C(C)C)C(=O)N(C)C(CC(C)C)C(=O)NC(C)C(=O)NC(C)C(=O)N(C)C(CC(C)C)C(=O)N(C)C(CC(C)C)C(=O)N(C)C(C(C)C)C(=O)N1C (stereo not shown) [[N-MeSer]-4-cyclosporin]	560
CC=CCC(C)C(O)C1C(=O)NC(CC)C(=O)N(C)C(SCCN(CC)CC)C(=O)N(C)C(CC(C)(C)OCSC)C(=O)NC(C(C)C)C(=O)N(C)C(CC(C)C)C(=O)NC(C)C(=O)NC(C)C(=O)N(C)C(CC(C)C)C(=O)N(C)C(CC(C)C)C(=O)N(C)C(C(C)C)C(=O)N1C (stereo not shown) (cyclo([X3][Abu][X4][X5]V[NMeL]AA[NMeL][NMeL][NMeV]); configuration not given here)	130
CC=CCC(C)C(O)C1C(=O)NC(CC)C(=O)N(C)C(SCCCN2CCOCC2)C(=O)N(C)C(CC(C)(C)O)C(=O)NC(C(C)C)C(=O)N(C)C(CC(C)C)C(=O)NC(C)C(=O)NC(C)C(=O)N(C)C(CC(C)C)C(=O)N(C)C(CC(C)C)C(=O)N(C)C(C(C)C)C(=O)N1C [[(S)-3-(N-Morpholino)propylthio-Sar]-3-[(γ-hydroxy)-N-MeLeu]-4-cyclosporin]	50
CCCCC(C)C(O)C1C(=O)NC(CC)C(=O)N(C)CC(=O)N(C)C(CC(C)(C)OC)C(=O)NC(C(C)C)C(=O)N(C)C(CC(C)C)C(=O)NC(C)C(=O)NC(C)C(=O)N(C)C(CC(C)C)C(=O)N(C)C(CC(C)C)C(=O)N(C)C(C(C)C)C(=O)N1C (stereo not shown) [[(γ-Methoxy)-N-MeLeu]-4-dihydrocyclosporin]	350

Same assay, conditions: Table 14, HCV replicon luciferase; read-out: Antiviral activity EC50

Compound	EC50 [nM]
C/C=C/C[C@@H](C)[C@@H](O)[C@H]1C(=O)N[C@@H](CC)C(=O)N(C)[C@H](CSCCN(C)C)C(=O)N(C)[C@@H](CC(C)(C)O)C(=O)N[C@@H](C(C)C)C(=O)N(C)[C@@H](CC(C)C)C(=O)N[C@@H](C)C(=O)N[C@H](C)C(=O)N(C)[C@@H](CC(C)C)C(=O)N(C)[C@@H](CC(C)C)C(=O)N(C)[C@@H](C(C)C)C(=O)N1C (single isomer, unassigned; isomer b)	50
C/C=C/C[C@@H](C)[C@@H](O)[C@H]1C(=O)N[C@@H](CC)C(=O)N(C)[C@H](COCCCN2CCCC2)C(=O)N(C)[C@@H](CC(C)(C)O)C(=O)N[C@@H](C(C)C)C(=O)N(C)[C@@H](CC(C)C)C(=O)N[C@@H](C)C(=O)N[C@H](C)C(=O)N(C)[C@@H](CC(C)C)C(=O)N(C)[C@@H](CC(C)C)C(=O)N(C)[C@@H](C(C)C)C(=O)N1C	120

Same assay, conditions: Table 16, HCV replicon luciferase; read-out: Antiviral activity EC50

Compound	EC50 [nM]
CC=CCC(C)C(O)C1C(=O)NC(CC)C(=O)N(C)C(CSCCCN2CCN(CC)CC2)C(=O)N(C)C(CC(C)(C)O)C(=O)NC(C(C)C)C(=O)N(C)C(CC(C)C)C(=O)NC(C)C(=O)NC(C)C(=O)N(C)C(CC(C)C)C(=O)N(C)C(CC(C)C)C(=O)N(C)C(C(C)C)C(=O)N1C (stereo not shown)	50
C/C=C/C[C@@H](C)[C@@H](O)[C@H]1C(=O)N[C@@H](CC)C(=O)N(C)[C@H](CSCCCN2CCN(CC(C)C)CC2)C(=O)N(C)[C@@H](CC(C)(C)O)C(=O)N[C@@H](C(C)C)C(=O)N(C)[C@@H](CC(C)C)C(=O)N[C@@H](C)C(=O)N[C@H](C)C(=O)N(C)[C@@H](CC(C)C)C(=O)N(C)[C@@H](CC(C)C)C(=O)N(C)[C@@H](C(C)C)C(=O)N1C	50
CC=CCC(C)C(O)C1C(=O)NC(CC)C(=O)N(C)C(CSCCCNCC(C)(C)C)C(=O)N(C)C(CC(C)(C)O)C(=O)NC(C(C)C)C(=O)N(C)C(CC(C)C)C(=O)NC(C)C(=O)NC(C)C(=O)N(C)C(CC(C)C)C(=O)N(C)C(CC(C)C)C(=O)N(C)C(C(C)C)C(=O)N1C (stereo not shown)	50
C/C=C/C[C@@H](C)[C@@H](O)[C@H]1C(=O)N[C@@H](CC)C(=O)N(C)[C@H](CSCCCN(CC(C)C)CC(C)C)C(=O)N(C)[C@@H](CC(C)(C)O)C(=O)N[C@@H](C(C)C)C(=O)N(C)[C@@H](CC(C)C)C(=O)N[C@@H](C)C(=O)N[C@H](C)C(=O)N(C)[C@@H](CC(C)C)C(=O)N(C)[C@@H](CC(C)C)C(=O)N(C)[C@@H](C(C)C)C(=O)N1C	40
